Laboratory results taken from ChEMBL document CHEMBL5046315, “CRCM5484: A BET-BDII Selective Compound with Differential Anti-leukemic Drug Modulation” (J Med Chem, 2022).
Activity calls are given as the source filed them. No cut-off for these calls is given here.

Assays:
[1] = target: Bromodomain-containing protein 3 (Homo sapiens, UniProt Q15059); experiment: Inhibition of BRD3-BD2 (unknown origin) incubated for 6 hrs by HTRF method
[2] = target: T1, E3 ubiquitin-protein ligase TRIM33 (Homo sapiens) (UniProt Q9UPN9); experiment: Binding affinity to partial length human TRIM33 (D882 to A1087 residues) expressed in bacterial system at 1 uM by BROMOscan method relative to control
T1 sequence (whole entry): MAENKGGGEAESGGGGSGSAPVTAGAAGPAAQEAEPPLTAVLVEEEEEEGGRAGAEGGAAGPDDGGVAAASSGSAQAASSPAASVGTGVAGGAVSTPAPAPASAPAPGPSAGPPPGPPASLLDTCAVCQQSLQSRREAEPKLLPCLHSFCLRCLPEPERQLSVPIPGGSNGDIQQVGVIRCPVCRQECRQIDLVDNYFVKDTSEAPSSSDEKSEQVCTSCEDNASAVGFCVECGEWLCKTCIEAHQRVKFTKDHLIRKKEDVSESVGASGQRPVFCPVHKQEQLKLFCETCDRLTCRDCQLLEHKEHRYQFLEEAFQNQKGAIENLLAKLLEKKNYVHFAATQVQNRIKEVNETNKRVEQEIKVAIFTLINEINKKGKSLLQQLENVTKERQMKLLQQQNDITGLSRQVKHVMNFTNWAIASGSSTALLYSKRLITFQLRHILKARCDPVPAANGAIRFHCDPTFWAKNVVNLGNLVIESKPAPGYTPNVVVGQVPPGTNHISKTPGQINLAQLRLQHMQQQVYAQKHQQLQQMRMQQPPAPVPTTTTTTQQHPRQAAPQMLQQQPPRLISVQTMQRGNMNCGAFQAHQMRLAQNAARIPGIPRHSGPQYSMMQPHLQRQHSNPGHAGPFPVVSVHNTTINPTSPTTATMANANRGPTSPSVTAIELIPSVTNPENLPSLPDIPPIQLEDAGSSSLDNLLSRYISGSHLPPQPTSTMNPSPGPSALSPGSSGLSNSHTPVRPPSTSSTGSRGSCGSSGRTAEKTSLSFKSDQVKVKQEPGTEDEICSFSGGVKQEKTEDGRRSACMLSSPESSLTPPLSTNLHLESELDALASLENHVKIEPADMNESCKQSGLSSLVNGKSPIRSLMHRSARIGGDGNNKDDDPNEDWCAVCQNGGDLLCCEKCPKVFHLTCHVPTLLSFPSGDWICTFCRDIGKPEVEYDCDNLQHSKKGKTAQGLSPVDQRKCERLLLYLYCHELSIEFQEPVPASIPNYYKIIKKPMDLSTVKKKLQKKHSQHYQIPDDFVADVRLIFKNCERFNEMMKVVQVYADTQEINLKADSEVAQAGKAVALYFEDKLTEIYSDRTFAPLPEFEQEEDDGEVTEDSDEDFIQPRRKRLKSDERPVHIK

[3] = target: Bromodomain-containing protein 4 (Homo sapiens, UniProt O60885); experiment: Inhibition of human partial length BRD4-BD2 (K333 to E460 residues) expressed in bacterial system at 1 uM by BROMOscan method relative to control
[4] = test system: NB-4; experiment: Cytotoxicity against human NB-4 cells assessed as reduction in cell viability incubated for 72 hrs; format: functional, cell-based; settings: NB-4, 72 h
[5] = test system: Acute myeloid leukemic cell; experiment: Potentiation of birinapant-induced antileukemic activity against patient derived mouse xenografted acute myeloid leukemic cells assessed as cell viability in absence of bone-marrow derived stromal cell-conditioned medium measured after 72 to 144 hrs by cell-titre glo luminescent assay; format: functional, cell-based; settings: Homo sapiens, dose microM <=10, time lower […], time upper 144.0 hrs
[6] = test system: CCRF-CEM; experiment: Potentiation of AC-4-130-induced antileukemic activity against human CCRF-CEM cells at 4.3 uM in presence of bone-marrow derived stromal cell-conditioned medium; format: functional, cell-based
[7] = test system: CCRF-CEM; experiment: Potentiation of afatinib-induced antileukemic activity against human CCRF-CEM cells at 4.3 uM in presence of bone-marrow derived stromal cell-conditioned medium; format: functional, cell-based
[8] = test system: CCRF-CEM; experiment: Potentiation of cladribine-induced antileukemic activity against human CCRF-CEM cells at 4.3 uM in presence of bone-marrow derived stromal cell-conditioned medium; format: functional, cell-based
[9] = test system: CCRF-CEM; experiment: Potentiation of GSK126-induced antileukemic activity against human CCRF-CEM cells at 4.3 uM in presence of bone-marrow derived stromal cell-conditioned medium; format: functional, cell-based
[10] = test system: CCRF-CEM; experiment: Potentiation of GSK2879552-induced antileukemic activity against human CCRF-CEM cells at 4.3 uM in presence of bone-marrow derived stromal cell-conditioned medium; format: functional, cell-based
[11] = test system: CCRF-CEM; experiment: Potentiation of JQ1-induced antileukemic activity against human CCRF-CEM cells at 4.3 uM in presence of bone-marrow derived stromal cell-conditioned medium; format: functional, cell-based
[12] = test system: CCRF-CEM; experiment: Potentiation of panobinostat-induced antileukemic activity against human CCRF-CEM cells at 4.3 uM in presence of bone-marrow derived stromal cell-conditioned medium; format: functional, cell-based
[13] = test system: CCRF-CEM; experiment: Potentiation of sunitinib-induced antileukemic activity against human CCRF-CEM cells at 4.3 uM in presence of bone-marrow derived stromal cell-conditioned medium; format: functional, cell-based
[14] = test system: CCRF-CEM; experiment: Potentiation of topotecan-induced antileukemic activity against human CCRF-CEM cells at 4.3 uM in presence of bone-marrow derived stromal cell-conditioned medium; format: functional, cell-based
[15] = test system: U-937; experiment: Potentiation of 17AAG-induced antileukemic activity against human U-937 cells at 4.3 uM in presence of bone-marrow derived stromal cell-conditioned medium; format: functional, cell-based
[16] = test system: U-937; experiment: Potentiation of alisertib-induced antileukemic activity against human U-937 cells at 4.3 uM in presence of bone-marrow derived stromal cell-conditioned medium; format: functional, cell-based
[17] = test system: U-937; experiment: Potentiation of BKM120-induced antileukemic activity against human U-937 cells at 4.3 uM in presence of bone-marrow derived stromal cell-conditioned medium; format: functional, cell-based
[18] = test system: U-937; experiment: Potentiation of idasanutlin-induced antileukemic activity against human U-937 cells at 4.3 uM in presence of bone-marrow derived stromal cell-conditioned medium; format: functional, cell-based
[19] = test system: U-937; experiment: Potentiation of idelalisib-induced antileukemic activity against human U-937 cells at 4.3 uM in presence of bone-marrow derived stromal cell-conditioned medium; format: functional, cell-based
[20] = test system: U-937; experiment: Potentiation of imatinib-induced antileukemic activity against human U-937 cells at 4.3 uM in presence of bone-marrow derived stromal cell-conditioned medium; format: functional, cell-based
[21] = test system: U-937; experiment: Potentiation of JQ1-induced antileukemic activity against human U-937 cells at 4.3 uM in presence of bone-marrow derived stromal cell-conditioned medium; format: functional, cell-based
[22] = test system: MOLM-14; experiment: Potentiation of arsenic-induced antileukemic activity against human MOLM-14 cells at 4.3 uM in presence of bone-marrow derived stromal cell-conditioned medium; format: functional, cell-based
[23] = test system: MOLM-14; experiment: Potentiation of BKM120-induced antileukemic activity against human MOLM-14 cells at 4.3 uM in presence of bone-marrow derived stromal cell-conditioned medium; format: functional, cell-based
[24] = test system: MOLM-14; experiment: Potentiation of cyclopamine-induced antileukemic activity against human MOLM-14 cells at 4.3 uM in presence of bone-marrow derived stromal cell-conditioned medium; format: functional, cell-based
[25] = test system: MOLM-14; experiment: Potentiation of lapatinib-induced antileukemic activity against human MOLM-14 cells at 4.3 uM in presence of bone-marrow derived stromal cell-conditioned medium; format: functional, cell-based

Chain of Bromodomain-containing protein 3 (Q15059 whole entry, the tested form may be a part): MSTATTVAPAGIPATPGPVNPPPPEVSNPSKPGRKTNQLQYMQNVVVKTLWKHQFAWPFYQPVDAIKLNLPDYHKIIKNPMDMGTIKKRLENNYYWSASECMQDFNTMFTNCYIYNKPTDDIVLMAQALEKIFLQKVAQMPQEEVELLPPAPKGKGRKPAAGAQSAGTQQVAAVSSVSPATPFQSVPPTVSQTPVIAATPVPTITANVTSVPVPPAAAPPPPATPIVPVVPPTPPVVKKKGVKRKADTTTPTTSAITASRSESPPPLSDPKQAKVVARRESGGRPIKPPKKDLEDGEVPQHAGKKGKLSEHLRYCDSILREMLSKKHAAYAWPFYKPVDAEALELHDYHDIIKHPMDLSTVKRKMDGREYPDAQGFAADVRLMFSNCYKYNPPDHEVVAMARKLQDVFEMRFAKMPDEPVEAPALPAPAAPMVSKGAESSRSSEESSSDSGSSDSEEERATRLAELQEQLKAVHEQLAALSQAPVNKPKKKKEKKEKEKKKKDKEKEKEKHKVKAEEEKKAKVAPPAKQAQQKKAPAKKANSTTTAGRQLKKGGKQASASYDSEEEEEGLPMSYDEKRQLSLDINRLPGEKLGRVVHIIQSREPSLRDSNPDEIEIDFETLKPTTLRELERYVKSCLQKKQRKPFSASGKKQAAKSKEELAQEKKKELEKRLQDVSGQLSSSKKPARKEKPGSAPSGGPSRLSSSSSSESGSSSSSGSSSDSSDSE

`CC(=O)N1CCc2c(sc3nc(SCC(=O)Nc4cccnc4C)n(Cc4ccco4)c(=O)c23)C1` was tested, and the IC50 [1] was 20 nM, the Activity [2] was 52% and the inhibition [3] was 41%. For the same compound, the EC50 [4] was > 5000 nM, the Activity [5] was “Dose-Dependent Effect” and the Activity [6] was “inactive”. For the same compound, the Activity [7] was “inactive”, the Activity [8] was “inactive” and the Activity [9] was “inactive”. The Activity [10] was “inactive”, the Activity [11] was “inactive” and the Activity [12] was “inactive”. For the same compound, the Activity [13] was “inactive”, the Activity [14] was “inactive” and the Activity [15] was “inactive”. For the same compound, the Activity [16] was “inactive”, the Activity [17] was “inactive” and the Activity [18] was “inactive”. For the same compound, the Activity [19] was “inactive”, the Activity [20] was “inactive” and the Activity [21] was “inactive”. The Activity [22] was “inactive”, the Activity [23] was “inactive” and the Activity [24] was “inactive”. For the same compound, the Activity [25] was “inactive”.
